Active and inactive are the calls of the source.
What was measured:
Actin-related protein 2 = Actin-related protein 2 (Homo sapiens, UniProt P61160)
[1] = biological target: Adenylate kinase 2, mitochondrial (Homo sapiens, UniProt P54819)
[2] = biological target: Serine/threonine-protein kinase B-raf (Homo sapiens, UniProt P15056)
[3] = biological target: Serine/threonine-protein kinase/endoribonuclease IRE1 (Homo sapiens, UniProt O75460)
[4] = biological target: Inosine-5'-monophosphate dehydrogenase 2 (Homo sapiens, UniProt P12268)
[5] = biological target: T1, Dual specificity mitogen-activated protein kinase kinase 6 (Homo sapiens, UniProt P52564)
T1 sequence (P52564 whole entry): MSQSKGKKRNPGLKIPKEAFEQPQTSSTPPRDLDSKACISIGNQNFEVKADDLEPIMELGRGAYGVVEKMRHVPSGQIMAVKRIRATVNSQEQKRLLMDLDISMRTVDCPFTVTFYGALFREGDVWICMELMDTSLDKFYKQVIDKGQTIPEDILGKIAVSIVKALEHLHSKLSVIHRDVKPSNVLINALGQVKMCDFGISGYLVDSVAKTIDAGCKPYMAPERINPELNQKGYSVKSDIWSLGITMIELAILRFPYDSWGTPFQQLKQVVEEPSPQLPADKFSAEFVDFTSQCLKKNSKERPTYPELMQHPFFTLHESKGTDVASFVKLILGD

[6] = biological target: Mitogen-activated protein kinase 11 (Homo sapiens, UniProt Q15759)
[7] = biological target: cAMP-dependent protein kinase catalytic subunit gamma (Homo sapiens, UniProt P22612)
[8] = biological target: Protein kinase C beta type (Homo sapiens, UniProt P05771)
[9] = biological target: Ribosomal protein S6 kinase beta-1 (Homo sapiens, UniProt P23443)
[10] = biological target: T2, Uncharacterized protein FLJ45252 (Homo sapiens, UniProt Q6ZSR9); settings: read-out: Kd apparent; k-562, colo 205, sk-n-be(2) and mv-4-11
T2 sequence (Q6ZSR9 whole entry): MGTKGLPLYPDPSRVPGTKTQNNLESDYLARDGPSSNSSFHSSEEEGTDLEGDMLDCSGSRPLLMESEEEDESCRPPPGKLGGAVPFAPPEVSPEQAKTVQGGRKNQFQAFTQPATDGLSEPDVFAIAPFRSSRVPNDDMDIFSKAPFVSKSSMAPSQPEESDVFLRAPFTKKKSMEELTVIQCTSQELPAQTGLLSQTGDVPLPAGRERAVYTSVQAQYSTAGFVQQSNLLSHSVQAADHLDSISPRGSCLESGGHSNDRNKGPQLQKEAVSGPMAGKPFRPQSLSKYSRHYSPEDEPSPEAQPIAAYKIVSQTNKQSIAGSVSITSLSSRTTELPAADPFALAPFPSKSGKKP

[11] = biological target: T3, Serine/threonine-protein kinase A-Raf (Homo sapiens, UniProt P10398)
T3 sequence (P10398 whole entry): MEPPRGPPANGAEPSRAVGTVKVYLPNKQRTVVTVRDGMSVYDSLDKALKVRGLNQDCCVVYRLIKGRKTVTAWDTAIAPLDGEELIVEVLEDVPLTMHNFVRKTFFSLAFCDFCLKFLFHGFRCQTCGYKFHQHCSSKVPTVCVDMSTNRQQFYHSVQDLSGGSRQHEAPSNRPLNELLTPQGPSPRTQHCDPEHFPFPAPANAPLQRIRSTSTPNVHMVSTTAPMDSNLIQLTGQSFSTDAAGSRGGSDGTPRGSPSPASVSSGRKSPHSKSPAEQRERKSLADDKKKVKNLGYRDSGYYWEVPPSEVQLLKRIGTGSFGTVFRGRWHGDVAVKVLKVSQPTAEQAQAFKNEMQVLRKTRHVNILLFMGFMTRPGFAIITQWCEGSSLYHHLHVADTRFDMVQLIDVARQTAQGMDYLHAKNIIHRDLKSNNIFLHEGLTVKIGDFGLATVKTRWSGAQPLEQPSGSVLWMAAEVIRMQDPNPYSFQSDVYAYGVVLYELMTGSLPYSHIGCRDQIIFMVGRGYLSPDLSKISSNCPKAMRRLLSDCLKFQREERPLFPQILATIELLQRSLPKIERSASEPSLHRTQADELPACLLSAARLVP

[12] = biological target: T4, Mitogen-activated protein kinase kinase kinase kinase 2 (Homo sapiens, UniProt Q12851)
T4 sequence (Q12851 whole entry): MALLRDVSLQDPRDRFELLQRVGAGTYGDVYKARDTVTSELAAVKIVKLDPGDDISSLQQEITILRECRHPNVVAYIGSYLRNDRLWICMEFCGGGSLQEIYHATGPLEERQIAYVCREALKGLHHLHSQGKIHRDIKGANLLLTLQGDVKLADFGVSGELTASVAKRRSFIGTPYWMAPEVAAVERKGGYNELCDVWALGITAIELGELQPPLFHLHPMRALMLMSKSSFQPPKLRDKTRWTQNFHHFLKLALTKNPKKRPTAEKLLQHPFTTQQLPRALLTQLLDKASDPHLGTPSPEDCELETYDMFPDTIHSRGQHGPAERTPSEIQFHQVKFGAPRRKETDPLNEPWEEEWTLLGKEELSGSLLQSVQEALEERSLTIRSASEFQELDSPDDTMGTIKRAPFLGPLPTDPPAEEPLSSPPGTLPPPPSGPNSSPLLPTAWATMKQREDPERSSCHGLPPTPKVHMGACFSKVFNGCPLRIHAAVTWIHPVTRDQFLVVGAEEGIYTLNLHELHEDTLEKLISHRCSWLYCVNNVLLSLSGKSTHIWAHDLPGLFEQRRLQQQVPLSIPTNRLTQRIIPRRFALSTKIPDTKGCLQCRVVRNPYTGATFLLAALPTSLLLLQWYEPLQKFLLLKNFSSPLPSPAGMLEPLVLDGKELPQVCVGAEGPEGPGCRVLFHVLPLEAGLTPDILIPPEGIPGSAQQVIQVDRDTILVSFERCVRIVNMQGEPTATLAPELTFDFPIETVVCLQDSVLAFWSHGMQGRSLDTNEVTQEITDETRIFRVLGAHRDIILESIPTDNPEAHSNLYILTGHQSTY
Also: in the data inactive means no Kd found up to 30 µM.

Sequence of Mitogen-activated protein kinase 11 (Q15759 whole entry): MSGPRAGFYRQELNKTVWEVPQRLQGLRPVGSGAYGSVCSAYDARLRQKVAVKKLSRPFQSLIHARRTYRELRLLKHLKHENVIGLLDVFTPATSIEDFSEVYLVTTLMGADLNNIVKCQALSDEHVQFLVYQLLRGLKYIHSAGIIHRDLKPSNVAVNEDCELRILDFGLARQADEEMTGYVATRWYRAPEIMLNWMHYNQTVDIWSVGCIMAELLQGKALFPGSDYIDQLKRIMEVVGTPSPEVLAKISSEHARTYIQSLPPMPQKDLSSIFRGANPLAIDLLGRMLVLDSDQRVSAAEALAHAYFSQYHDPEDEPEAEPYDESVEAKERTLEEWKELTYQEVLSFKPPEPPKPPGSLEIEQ
Sequence of Protein kinase C beta type (P05771 whole entry): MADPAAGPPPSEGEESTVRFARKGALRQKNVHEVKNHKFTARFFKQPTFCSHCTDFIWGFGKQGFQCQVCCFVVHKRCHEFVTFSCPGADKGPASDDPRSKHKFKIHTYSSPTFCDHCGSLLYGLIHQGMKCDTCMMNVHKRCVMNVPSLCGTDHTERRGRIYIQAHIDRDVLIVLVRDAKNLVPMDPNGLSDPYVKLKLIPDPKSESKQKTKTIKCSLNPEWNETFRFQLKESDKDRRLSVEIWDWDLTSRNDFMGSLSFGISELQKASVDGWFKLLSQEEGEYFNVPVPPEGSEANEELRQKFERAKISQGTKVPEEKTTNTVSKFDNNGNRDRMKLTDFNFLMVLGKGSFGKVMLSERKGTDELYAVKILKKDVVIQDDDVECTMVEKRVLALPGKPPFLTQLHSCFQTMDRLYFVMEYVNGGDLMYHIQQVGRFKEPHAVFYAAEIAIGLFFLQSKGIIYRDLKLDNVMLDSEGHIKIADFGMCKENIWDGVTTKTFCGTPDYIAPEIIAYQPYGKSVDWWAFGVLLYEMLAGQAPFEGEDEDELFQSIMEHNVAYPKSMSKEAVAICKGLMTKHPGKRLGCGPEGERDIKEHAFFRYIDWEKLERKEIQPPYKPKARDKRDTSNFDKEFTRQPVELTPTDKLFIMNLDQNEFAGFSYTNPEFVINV
Sequence of Ribosomal protein S6 kinase beta-1 (P23443 whole entry): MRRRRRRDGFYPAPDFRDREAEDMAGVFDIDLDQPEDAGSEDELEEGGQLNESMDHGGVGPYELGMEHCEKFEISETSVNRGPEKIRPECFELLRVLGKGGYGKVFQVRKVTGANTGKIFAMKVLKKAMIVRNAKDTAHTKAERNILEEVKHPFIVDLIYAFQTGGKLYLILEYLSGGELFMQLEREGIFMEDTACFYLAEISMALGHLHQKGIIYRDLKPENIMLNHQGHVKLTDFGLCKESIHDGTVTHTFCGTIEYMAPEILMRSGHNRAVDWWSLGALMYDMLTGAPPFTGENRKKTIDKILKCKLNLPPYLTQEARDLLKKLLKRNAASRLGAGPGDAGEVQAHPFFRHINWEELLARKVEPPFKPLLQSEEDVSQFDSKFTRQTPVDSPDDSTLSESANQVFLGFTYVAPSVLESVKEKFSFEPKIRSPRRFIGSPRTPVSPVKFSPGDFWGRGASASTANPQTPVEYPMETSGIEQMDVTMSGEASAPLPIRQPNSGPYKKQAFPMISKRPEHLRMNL
Sequence of Serine/threonine-protein kinase/endoribonuclease IRE1 (O75460 whole entry): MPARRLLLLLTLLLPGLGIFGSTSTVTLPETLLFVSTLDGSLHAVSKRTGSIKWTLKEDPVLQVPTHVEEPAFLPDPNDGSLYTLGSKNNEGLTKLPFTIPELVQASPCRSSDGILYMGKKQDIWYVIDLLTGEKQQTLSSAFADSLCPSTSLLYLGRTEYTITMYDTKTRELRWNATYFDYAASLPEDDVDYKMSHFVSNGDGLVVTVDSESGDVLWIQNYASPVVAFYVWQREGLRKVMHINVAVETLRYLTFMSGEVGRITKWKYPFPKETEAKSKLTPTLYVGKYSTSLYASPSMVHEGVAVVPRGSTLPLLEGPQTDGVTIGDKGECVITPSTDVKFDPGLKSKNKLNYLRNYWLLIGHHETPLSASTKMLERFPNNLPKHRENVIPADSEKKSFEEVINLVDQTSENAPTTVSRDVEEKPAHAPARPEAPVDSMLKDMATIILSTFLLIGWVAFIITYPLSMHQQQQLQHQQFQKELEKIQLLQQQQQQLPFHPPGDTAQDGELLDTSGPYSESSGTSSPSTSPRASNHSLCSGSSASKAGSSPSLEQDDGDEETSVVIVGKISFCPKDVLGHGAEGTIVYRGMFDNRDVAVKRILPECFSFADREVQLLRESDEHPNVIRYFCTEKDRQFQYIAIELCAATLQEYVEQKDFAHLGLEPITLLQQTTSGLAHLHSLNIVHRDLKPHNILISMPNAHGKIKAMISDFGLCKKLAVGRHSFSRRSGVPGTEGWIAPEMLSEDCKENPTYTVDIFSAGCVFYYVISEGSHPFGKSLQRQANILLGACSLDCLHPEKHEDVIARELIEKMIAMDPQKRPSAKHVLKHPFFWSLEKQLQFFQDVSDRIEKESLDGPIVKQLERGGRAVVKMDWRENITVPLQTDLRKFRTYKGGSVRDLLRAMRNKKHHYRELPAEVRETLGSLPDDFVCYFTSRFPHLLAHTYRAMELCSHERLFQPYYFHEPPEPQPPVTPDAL
Sequence of Serine/threonine-protein kinase B-raf (P15056 whole entry): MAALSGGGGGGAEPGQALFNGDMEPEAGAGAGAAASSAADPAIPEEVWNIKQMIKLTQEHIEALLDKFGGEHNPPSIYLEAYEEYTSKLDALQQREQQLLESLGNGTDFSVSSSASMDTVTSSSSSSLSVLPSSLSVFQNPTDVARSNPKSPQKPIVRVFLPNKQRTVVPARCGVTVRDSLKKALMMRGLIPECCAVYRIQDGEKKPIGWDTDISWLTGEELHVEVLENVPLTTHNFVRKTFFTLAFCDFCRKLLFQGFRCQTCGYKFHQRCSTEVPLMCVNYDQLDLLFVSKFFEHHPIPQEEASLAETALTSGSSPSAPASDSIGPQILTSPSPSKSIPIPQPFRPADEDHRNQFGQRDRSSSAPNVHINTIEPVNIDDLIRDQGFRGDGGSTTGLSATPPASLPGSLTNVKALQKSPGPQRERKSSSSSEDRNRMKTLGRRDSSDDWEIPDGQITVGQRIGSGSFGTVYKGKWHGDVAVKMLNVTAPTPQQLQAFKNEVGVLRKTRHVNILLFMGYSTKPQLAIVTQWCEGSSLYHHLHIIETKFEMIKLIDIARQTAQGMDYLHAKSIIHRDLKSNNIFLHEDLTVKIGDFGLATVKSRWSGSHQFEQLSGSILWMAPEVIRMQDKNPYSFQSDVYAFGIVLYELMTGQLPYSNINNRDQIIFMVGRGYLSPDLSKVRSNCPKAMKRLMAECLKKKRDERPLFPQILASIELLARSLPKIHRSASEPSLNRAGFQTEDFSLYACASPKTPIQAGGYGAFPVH
Sequence of cAMP-dependent protein kinase catalytic subunit gamma (P22612 whole entry): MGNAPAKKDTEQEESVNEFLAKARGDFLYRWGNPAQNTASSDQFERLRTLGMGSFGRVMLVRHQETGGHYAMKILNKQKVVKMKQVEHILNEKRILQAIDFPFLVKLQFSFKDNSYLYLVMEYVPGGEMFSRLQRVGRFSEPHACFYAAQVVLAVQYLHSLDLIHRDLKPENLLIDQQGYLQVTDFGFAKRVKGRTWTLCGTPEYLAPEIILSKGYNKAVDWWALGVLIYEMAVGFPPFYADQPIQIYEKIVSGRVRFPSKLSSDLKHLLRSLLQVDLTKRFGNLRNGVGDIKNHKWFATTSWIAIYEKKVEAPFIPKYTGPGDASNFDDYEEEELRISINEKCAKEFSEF

Compound | Kd (Actin-related protein 2) | Kd [1] | Kd [3] | Kd [4] | Kd [5] | Kd [6] | Kd [7] | Kd [8] | Kd [9] | Kd [10] | Kd [11] | Kd [12] | Kd [2]
CCN(CCCOc1ccc2c(Nc3cc(CC(=O)Nc4cccc(F)c4)n[nH]3)ncnc2c1)CCOP(=O)(O)O [BARASERTIB] | > 30 µM (inactive) | > 30 µM (inactive) | > 30 µM (inactive) | > 30 µM (inactive) | > 30 µM (inactive) | > 30 µM (inactive) | > 30 µM (inactive) | > 30 µM (inactive) | > 30 µM (inactive) | > 30 µM (inactive) | – | – | > 30 µM (inactive)
C=CCn1c(=O)c2cnc(Nc3ccc(N4CCN(C)CC4)cc3)nc2n1-c1cccc(C(C)(C)O)n1 [ADAVOSERTIB] | > 30 µM (inactive) | > 30 µM (inactive) | > 30 µM (inactive) | > 30 µM (inactive) | > 30 µM (inactive) | > 30 µM (inactive) | > 30 µM (inactive) | > 30 µM (inactive) | > 30 µM (inactive) | > 30 µM (inactive) | > 30 µM (inactive) | – | > 30 µM (inactive)
C[C@]1(O)C[C@@H](c2nc(-c3ccc4ccc(-c5ccccc5)nc4c3)c3c(N)nccn32)C1 [LINSITINIB] | > 30 µM (inactive) | > 30 µM (inactive) | > 30 µM (inactive) | > 30 µM (inactive) | > 30 µM (inactive) | 0.01 µM | > 30 µM (inactive) | > 30 µM (inactive) | – | > 30 µM (inactive) | > 30 µM (inactive) | 0.067 µM (active) | > 30 µM (inactive)
CN(c1ncccc1CNc1nc(Nc2ccc3c(c2)CC(=O)N3)ncc1C(F)(F)F)S(C)(=O)=O [PF-00562271] | > 30 µM (inactive) | > 30 µM (inactive) | > 30 µM (inactive) | > 30 µM (inactive) | – | > 30 µM (inactive) | > 30 µM (inactive) | > 30 µM (inactive) | – | > 30 µM (inactive) | > 30 µM (inactive) | – | > 30 µM (inactive)
C[C@@]1(C(=O)Nc2ccc(F)nc2)CCCN1c1nc(Nc2cc(C3CC3)n[nH]2)c2cccn2n1 [BMS-754807] | > 30 µM (inactive) | > 30 µM (inactive) | – | > 30 µM (inactive) | – | – | > 30 µM (inactive) | > 30 µM (inactive) | – | > 30 µM (inactive) | > 30 µM (inactive) | – | –
CCOc1ccn(-c2ccc(F)cc2)c(=O)c1C(=O)Nc1ccc(Oc2ccnc(N)c2Cl)c(F)c1 [BMS-777607] | – | > 30 µM (inactive) | > 30 µM (inactive) | > 30 µM (inactive) | > 30 µM (inactive) | > 30 µM (inactive) | > 30 µM (inactive) | > 30 µM (inactive) | – | – | – | – | –
Cn1c(=O)n(-c2ccc(C(C)(C)C#N)cc2)c2c3cc(-c4cnc5ccccc5c4)ccc3ncc21 [DACTOLISIB] | > 30 µM (inactive) | > 30 µM (inactive) | > 30 µM (inactive) | > 30 µM (inactive) | > 30 µM (inactive) | > 30 µM (inactive) | > 30 µM (inactive) | > 30 µM (inactive) | – | > 30 µM (inactive) | > 30 µM (inactive) | – | > 30 µM (inactive)
CN(C)C/C=C/C(=O)Nc1cc2c(Nc3ccc(F)c(Cl)c3)ncnc2cc1O[C@H]1CCOC1 [AFATINIB] | > 30 µM (inactive) | > 30 µM (inactive) | – | > 30 µM (inactive) | – | – | > 30 µM (inactive) | > 30 µM (inactive) | – | > 30 µM (inactive) | > 30 µM (inactive) | – | –

Now from value to compound, other results behind:

Kd (Actin-related protein 2) | Kd [1] | Kd [3] | Kd [4] | Kd [5] | Kd [6] | Kd [7] | Kd [8] | Kd [9] | Kd [10] | Kd [11] | Kd [12] | Compound | Kd [2]
> 30 µM (inactive) | > 30 µM (inactive) | > 30 µM (inactive) | > 30 µM (inactive) | > 30 µM (inactive) | > 30 µM (inactive) | > 30 µM (inactive) | > 30 µM (inactive) | > 30 µM (inactive) | > 30 µM (inactive) | > 30 µM (inactive) | > 30 µM (inactive) | O=C(NOC[C@H](O)CO)c1ccc(F)c(F)c1Nc1ccc(I)cc1F [MIRDAMETINIB] | –
> 30 µM (inactive) | > 30 µM (inactive) | > 30 µM (inactive) | > 30 µM (inactive) | > 30 µM (inactive) | – | > 30 µM (inactive) | > 30 µM (inactive) | > 30 µM (inactive) | > 30 µM (inactive) | > 30 µM (inactive) | > 30 µM (inactive) | C=CC(=O)Nc1cccc(Nc2nc(Nc3ccc(N4CCN(C(C)=O)CC4)cc3OC)ncc2C(F)(F)F)c1 [ROCILETINIB] | –
> 30 µM (inactive) | > 30 µM (inactive) | > 30 µM (inactive) | > 30 µM (inactive) | > 30 µM (inactive) | > 30 µM (inactive) | > 30 µM (inactive) | > 30 µM (inactive) | > 30 µM (inactive) | > 30 µM (inactive) | > 30 µM (inactive) | > 30 µM (inactive) | O=S(=O)(c1cccc2c(O)nccc12)N1CCCNCC1 [HYDROXYFASUDIL] | –
> 30 µM (inactive) | > 30 µM (inactive) | > 30 µM (inactive) | > 30 µM (inactive) | > 30 µM (inactive) | > 30 µM (inactive) | > 30 µM (inactive) | > 30 µM (inactive) | > 30 µM (inactive) | > 30 µM (inactive) | > 30 µM (inactive) | > 30 µM (inactive) | CC(C)(O)CC(=O)NCCn1ccc2ncnc(Nc3ccc(Oc4cccc(C(F)(F)F)c4)c(Cl)c3)c21 [TAK-285] | –
– | > 30 µM (inactive) | > 30 µM (inactive) | > 30 µM (inactive) | > 30 µM (inactive) | > 30 µM (inactive) | > 30 µM (inactive) | > 30 µM (inactive) | – | > 30 µM (inactive) | > 30 µM (inactive) | > 30 µM (inactive) | COc1cc2ncnc3c2cc1OCCCCCN(C)Cc1ccc(Br)cc1N3 [JNJ-26483327] | –
> 30 µM (inactive) | > 30 µM (inactive) | > 30 µM (inactive) | > 30 µM (inactive) | > 30 µM (inactive) | > 30 µM (inactive) | > 30 µM (inactive) | > 30 µM (inactive) | > 30 µM (inactive) | 1.54 µM (active) | > 30 µM (inactive) | > 30 µM (inactive) | COc1cc2ncnc(Nc3ccc(O)cc3)c2cc1OC [WHI-P131] | –

— ChEMBL document CHEMBL3991601, “The target landscape of clinical kinase drugs” (Science, 2017)
